# Reference: PubChem BioAssay AID1963434 (Molecular Pharmacology Branch, DTP, NCI, 2024)
# Test system: 755483-174-R-J1-PDC complex spheroid growth, percent test/control
# Test: Anticancer human tumor 755483-174-R-J1-PDC patient-derived rhabdomyosarcoma cell line growth inhibition [Asc]
# Details: for IC50: curve of first compound; for viability, T/C: stronger effect = lower value
# Experimental: Multicellular complex tumor spheroid response to apoptosis pathway targeting inhibitors Alrizomadlin, Pelcitoclax, and Dasminapant in combination with a variety of drugs and investigational agents in selected tumor cell lines
# The MDM2 inhibitor alrizomadlin, the Bcl-2/Bcl-xL inhibitor pelcitoclax, and the IAPs inhibitor dasminapant were evaluated both individually and in combination with standard of care and investigational anticancer small molecules within a complex spheroid model of solid tumors. . Complex spheroids include a stromal component modeled by human endothelial cells (HUVEC) and fibroblasts modeled by human mesenchymal stem cells (MSCs). The concentration ranges selected for each drug and investigational agent were based upon clinically achievable concentrations if the clinical Cmax of the agent was known.
# Compounds. The drugs and investigational agents: alrizomadlin (APG-115; NSC831270), pelcitoclax (APG-1252; NSC835773), dasminapant (APG-1387;NSC834197), TAK-243 (NSC785004), copanlisib (NSC809693), olaparib (NSC753686), talazoparib (NSC767125), cobimetinib (NSC 768068), eltanexor (KPT-8602, NSC 794443), abemaciclib (NSC 768073), sotorasib (NSC818433), adagrasib (NSC 831453), MRTX-1133 (NSC 836407), Iadademestat (ORY1001, NSC 806812), and RMC-4630 (NSC839698), were obtained from the NCI Developmental Therapeutics Program Chemical Repository. The FDA-approved anticancer drug set is available from the Developmental Therapeutics Program at https://dtp.cancer.gov/organization/dscb/obtaining/available plates.htm. […] The stock solutions were prepared in dimethyl sulfoxide (DMSO, Sigma-Aldrich, St. Louis, MO, cat. D2650) at 800-fold the tested concentration and stored at -70 degrees C prior to their use. All drugs and investigational agents were tested over a range starting from a high concentration at or near the clinical Cmax and decreasing in half-log increments. If the clinical Cmax for an agent had not been determined, the highest concentration tested was 10 microM.
# The patient-derived cancer (PDC) cell lines include five colon adenocarcinomas: 186277-243-T-J2-PDC, 616215-338-R-J1-PDC, 439559-082-T-J2-PDC, 463943-066-T-J2-PDC, and 519858-162-T-J1-PDC; three pancreatic carcinomas: 323965-272-R-J2-PDC, 521955-158-R6-J3-PDC, and 521955-158-R2-J5-PDC; two uterine sarcomas: 327498-152-R-J2-PDC and 993429-296-R-J1-PDC; two rhabdomyosarcomas: 755483-174-R-J1-PDC and 772245-204-R-J1-PDC; two soft tissue sarcomas: 126254-015-R-J1-PDC and 494315-158-R-J1-PDC; two malignant fibrous histiocytomas: 317291-083-R-J1-PDC and 596521-263-R-J1-PDC; two breast carcinomas: 171881-019-R-J1-PDC and 885512-296-R-J2-PDC; and one ovarian carcinoma: 6556581-035-R-J-PDC were obtained from the NCI PDMR, (https://pdmr.cancer.gov). The established cell lines HSSY-2 synovial sarcoma (RRID:CVCL 8719), SYO-1 synovial sarcoma (RRID:CVCL_7146), MPNST malignant peripheral neural sheath tumor were obtained from the Sloan Kettering Institute. The following established cell lines were purchased from the American Type Culture Collection (ATCC, Manassas, VA), Sor the received from the NCI repository:, PANC-1 pancreatic carcinoma (CRL-1469, RRID:CVCL_0480), OVCAR-5 ovarian carcinoma (RRID:CVCL_1628), OVCAR-8 ovarian carcinoma (RRID:CVCL_1629), , MCF-7 breast carcinoma (CRL-12584, RRID:CVCL_0031), MDA-MB-231 breast carcinoma (CRL-12532, RRID:CVCL_0062), NCI-H1876 small cell lung carcinoma (CRL-5902, RRID:CVCL_1503), NCI-H510A small cell lung carcinoma (HTB-184, RRID:CVCL_1565), NCI-H1417 (CRL-5869, RRID:CVCL_1469), and NCI-H196 small cell lung carcinoma (CRL-5823, RRID:CVCL_1509). Dr. Peter Houghton (Greehey Children's Cancer Research Institute, University of Texas Health Science Center, San Antonio, TX) provided Rh-18 rhabdomyosarcoma (RRID:CVCL_1659). Pooled donor human umbilical vein endothelial cells (HUVEC, Lonza, cat. CC-2519) and human mesenchymal stem cells (hMSC, Lonza, cat. PT-2501) were purchased from Lonza (Walkersville, MD).
# Cell Culture. […]
# 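Note: spheroids exposed to compounds for seven days before readout.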
structure (smiles),measurement,setting,value
O=C(c1cc(Cc2n[nH]c(=O)c3ccccc23)ccc1F)N1CCN(C(=O)C2CC2)CC1 + CCN1C(C(=O)NC23CCC(C(=O)O)(CC2)CC3)C(c2cccc(Cl)c2F)C2(C(=O)Nc3cc(Cl)ccc32)C12CCCCC2,IC50,second compound 0.03 µM,1.7 µM
same,IC50,second compound 0.0949 µM,2.56 µM
same,IC50,second compound 0.3 µM,1.61 µM
same,IC50,second compound 0.949 µM,1.57 µM
same,IC50,second compound 3 µM,1.11 µM
same,"viability, T/C","second compound 0.03 µM, first compound 0.0316 µM",58.3%
same,"viability, T/C","second compound 0.03 µM, first compound 0.1 µM",60.6%
same,"viability, T/C","second compound 0.03 µM, first compound 0.316 µM",68.3%
same,"viability, T/C","second compound 0.03 µM, first compound 1 µM",48.4%
same,"viability, T/C","second compound 0.03 µM, first compound 3.16 µM",46%
same,"viability, T/C","second compound 0.03 µM, first compound 10 µM",23.4%
same,"viability, T/C","second compound 0.0949 µM, first compound 0.0316 µM",79.4%
same,"viability, T/C","second compound 0.0949 µM, first compound 0.1 µM",77%
same,"viability, T/C","second compound 0.0949 µM, first compound 0.316 µM",72%
same,"viability, T/C","second compound 0.0949 µM, first compound 1 µM",64.3%
same,"viability, T/C","second compound 0.0949 µM, first compound 3.16 µM",46.5%
same,"viability, T/C","second compound 0.0949 µM, first compound 10 µM",26.1%
same,"viability, T/C","second compound 0.3 µM, first compound 0.0316 µM",80.3%
same,"viability, T/C","second compound 0.3 µM, first compound 0.1 µM",63%
same,"viability, T/C","second compound 0.3 µM, first compound 0.316 µM",55.8%
same,"viability, T/C","second compound 0.3 µM, first compound 1 µM",57.7%
same,"viability, T/C","second compound 0.3 µM, first compound 3.16 µM",52%
same,"viability, T/C","second compound 0.3 µM, first compound 10 µM",28.6%
same,"viability, T/C","second compound 0.949 µM, first compound 0.0316 µM",86.2%
same,"viability, T/C","second compound 0.949 µM, first compound 0.1 µM",69.2%
same,"viability, T/C","second compound 0.949 µM, first compound 0.316 µM",66%
same,"viability, T/C","second compound 0.949 µM, first compound 1 µM",58.4%
same,"viability, T/C","second compound 0.949 µM, first compound 3.16 µM",44.2%
same,"viability, T/C","second compound 0.949 µM, first compound 10 µM",20.9%
same,"viability, T/C","second compound 3 µM, first compound 0.0316 µM",71.3%
same,"viability, T/C","second compound 3 µM, first compound 0.1 µM",70.8%
same,"viability, T/C","second compound 3 µM, first compound 0.316 µM",50%
same,"viability, T/C","second compound 3 µM, first compound 1 µM",49.5%
same,"viability, T/C","second compound 3 µM, first compound 3.16 µM",51.4%
same,"viability, T/C","second compound 3 µM, first compound 10 µM",27.5%
